Test results taken from article PMC3559838 (PLoS ONE, 2013).
Like-named read-outs stand apart in the source and are kept apart here.

Tests used:
[1] = test system: human A2780 ovarian cancer cells; set-up: method as in Plumb et al., 2003; Investigator's Brochure, 2004; conditions: A2780 xenografts, 10 mg/kg/day IP once daily for 7 days; ref Plumb et al., 2003; Investigator's Brochure, 2004; cited from earlier work
[2] = set-up: method as in Investigator's Brochure, 2004; conditions: rats and dogs; ref Investigator's Brochure, 2004; cited from earlier work
[3] = human, in vivo; cited from earlier work
[4] = Pharmacokinetics after 30 min i.v. infusion, phase I trial in hepatocellular carcinoma patients; format: in vivo, human; conditions: for Cmax / AUC(0-t) / Tmax / clearance / half-life / Vd: human, iv, plasma; for Cmax: mean ± SD; for AUC(0-t): read-out: AUC0–24 h; for clearance: read-out: CL (clearance) (converted); for half-life: read-out: T1/2 (half-life at the elimination phase) (converted); for Vd: read-out: Vz (volume of distribution)
Experimental: This multicentre phase I trial of belinostat was done in Hong Kong and Singapore. All patients provided written informed consent according to Good Clinical Practice guidelines, and the protocol was approved by the institutional review boards of Prince of Wales Hospital, Hong Kong and National University Hospital, Singapore.
Venous blood samples had been collected in heparinized tubes. Collected blood samples were centrifuged at 3000 g for 10–15 min and the plasma (supernatant) was separated from the cell pellet and stored in plain tubes at –80°C till analysis. […] Briefly, vorinostat-G was used as the internal standard for belinostat-G. The mass spectrometer was operated in positive ion mode with the optimal mass transitions of belinostat-G: m/z 495>93 and vorinostat-G: m/z 441>232, respectively. The analytical method was well validated with good linearity (coefficient of determination, r^2≥0.999) in the range of 1–100 µM for belinostat-G.
Pharmacokinetic parameters were estimated based on non-compartmental analysis model using WinNonlin software version 5.3 (Pharmsight, Sunnyvale, CA, USA). […] One way analysis of variance (ANOVA) was used to determine the significance among the genotypes with Tukey posthoc tests for adjustment for comparison between individual groups. A value of p<0.05 was considered to be significant.

CYP2C9 = test system: CYP2C9; set-up: method as in protocol pharmaceutical information; conditions: ref protocol pharmaceutical information; cited from earlier work
[5] = test system: five major cytochrome P450 enzymes; conditions: cited from earlier work
[6] = cited from earlier work
UGT1A7 = target: T1, UGT1A7 (Homo sapiens, UniProt Q9HAW7); experiment: UGT supersome screening; format: in vitro ADME; conditions: UGT1A7 supersomes, 10 µM belinostat, 37°C
T1 construct: purchased BD Gentest
T1 sequence (Q9HAW7 26-530): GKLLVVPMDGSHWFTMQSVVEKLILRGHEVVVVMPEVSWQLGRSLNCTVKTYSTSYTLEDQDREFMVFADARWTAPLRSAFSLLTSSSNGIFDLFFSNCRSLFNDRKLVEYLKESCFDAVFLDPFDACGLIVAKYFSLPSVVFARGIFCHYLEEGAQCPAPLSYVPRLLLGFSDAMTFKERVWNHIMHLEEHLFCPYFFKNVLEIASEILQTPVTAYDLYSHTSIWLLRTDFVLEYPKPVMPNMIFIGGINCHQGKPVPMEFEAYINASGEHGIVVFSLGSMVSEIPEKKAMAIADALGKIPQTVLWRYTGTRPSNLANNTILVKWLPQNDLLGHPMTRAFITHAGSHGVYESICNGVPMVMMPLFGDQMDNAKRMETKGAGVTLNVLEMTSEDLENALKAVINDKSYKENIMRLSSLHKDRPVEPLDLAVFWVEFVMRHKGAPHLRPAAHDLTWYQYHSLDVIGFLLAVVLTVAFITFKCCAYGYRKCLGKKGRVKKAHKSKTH
Experimental: (§1) Before the addition of substrate, the incubation mixture was prewarmed and equilibrated for 5 min at 37°C. […] The incubation mixture was vortexed and centrifuged (10,060 g) at 4°C for 10 min, and the supernatants were analyzed. Insect microsomes without UGT cDNA served as negative control. […] Incubations were performed as described above. Three independent experiments were performed for kinetic analysis.

UGT2B17 = target: T2, UGT2B17 (Homo sapiens, UniProt O75795); experiment: UGT supersome screening; format: in vitro ADME; conditions: UGT2B17 supersomes, 10 µM belinostat, 37°C
T2 construct: purchased BD Gentest
T2 sequence (O75795 24-530): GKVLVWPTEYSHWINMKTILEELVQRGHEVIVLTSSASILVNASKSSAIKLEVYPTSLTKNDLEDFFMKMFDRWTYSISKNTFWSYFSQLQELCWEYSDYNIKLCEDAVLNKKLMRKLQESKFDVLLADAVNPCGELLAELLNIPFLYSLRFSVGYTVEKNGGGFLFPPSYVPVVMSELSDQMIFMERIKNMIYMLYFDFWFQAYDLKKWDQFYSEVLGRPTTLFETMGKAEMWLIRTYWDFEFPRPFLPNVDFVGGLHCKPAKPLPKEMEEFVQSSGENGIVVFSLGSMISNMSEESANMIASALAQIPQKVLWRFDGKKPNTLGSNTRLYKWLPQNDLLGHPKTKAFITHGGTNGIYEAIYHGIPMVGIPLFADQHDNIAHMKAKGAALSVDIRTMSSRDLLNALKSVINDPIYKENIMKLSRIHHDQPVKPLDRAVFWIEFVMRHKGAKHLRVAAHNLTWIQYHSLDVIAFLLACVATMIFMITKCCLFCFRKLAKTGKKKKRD
Experimental: as §1

UGT1A6 = target: T3, UGT1A6 (Homo sapiens, UniProt P19224); experiment: UGT supersome screening; format: in vitro ADME; conditions: UGT1A6 supersomes, 10 µM belinostat, 37°C
T3 construct: purchased BD Gentest
T3 sequence (P19224 27-532): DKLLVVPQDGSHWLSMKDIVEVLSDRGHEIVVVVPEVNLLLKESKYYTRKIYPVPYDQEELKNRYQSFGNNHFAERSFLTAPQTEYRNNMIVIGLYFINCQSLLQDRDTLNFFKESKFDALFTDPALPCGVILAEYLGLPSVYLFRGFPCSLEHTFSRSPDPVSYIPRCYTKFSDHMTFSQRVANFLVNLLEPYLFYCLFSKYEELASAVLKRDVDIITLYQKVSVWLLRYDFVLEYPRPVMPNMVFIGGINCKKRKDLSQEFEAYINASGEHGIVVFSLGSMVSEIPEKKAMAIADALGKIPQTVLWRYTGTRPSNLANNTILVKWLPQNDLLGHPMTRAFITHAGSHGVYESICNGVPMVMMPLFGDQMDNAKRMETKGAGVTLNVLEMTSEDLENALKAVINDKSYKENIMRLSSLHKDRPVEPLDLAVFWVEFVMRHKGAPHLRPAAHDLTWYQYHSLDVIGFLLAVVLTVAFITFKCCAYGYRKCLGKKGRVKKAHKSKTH
Experimental: as §1

UGT1A9 = target: T4, UGT1A9 (Homo sapiens, UniProt O60656); experiment: UGT supersome screening; format: in vitro ADME; conditions: UGT1A9 supersomes, 10 µM belinostat, 37°C
T4 construct: purchased BD Gentest
T4 sequence (O60656 26-530): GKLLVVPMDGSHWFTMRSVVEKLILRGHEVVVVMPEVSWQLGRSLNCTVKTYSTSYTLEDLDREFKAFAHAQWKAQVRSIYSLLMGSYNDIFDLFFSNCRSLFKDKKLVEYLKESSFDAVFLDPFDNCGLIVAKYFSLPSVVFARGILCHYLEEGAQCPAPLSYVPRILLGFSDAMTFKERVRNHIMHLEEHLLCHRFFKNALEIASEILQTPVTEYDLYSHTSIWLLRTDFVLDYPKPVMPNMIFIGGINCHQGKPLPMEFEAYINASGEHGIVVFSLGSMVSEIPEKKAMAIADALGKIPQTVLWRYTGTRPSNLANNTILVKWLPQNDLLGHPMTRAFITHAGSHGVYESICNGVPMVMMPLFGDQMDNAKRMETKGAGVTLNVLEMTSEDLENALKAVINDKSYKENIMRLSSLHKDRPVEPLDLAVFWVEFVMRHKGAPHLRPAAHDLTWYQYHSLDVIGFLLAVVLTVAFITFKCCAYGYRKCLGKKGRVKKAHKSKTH
Experimental: as §1

UGT1A4 = target: T5, UGT1A4 (Homo sapiens, UniProt P22310); experiment: UGT supersome screening; format: in vitro ADME; conditions: UGT1A4 supersomes, 10 µM belinostat, 37°C
T5 construct: purchased BD Gentest
T5 sequence (P22310 29-534): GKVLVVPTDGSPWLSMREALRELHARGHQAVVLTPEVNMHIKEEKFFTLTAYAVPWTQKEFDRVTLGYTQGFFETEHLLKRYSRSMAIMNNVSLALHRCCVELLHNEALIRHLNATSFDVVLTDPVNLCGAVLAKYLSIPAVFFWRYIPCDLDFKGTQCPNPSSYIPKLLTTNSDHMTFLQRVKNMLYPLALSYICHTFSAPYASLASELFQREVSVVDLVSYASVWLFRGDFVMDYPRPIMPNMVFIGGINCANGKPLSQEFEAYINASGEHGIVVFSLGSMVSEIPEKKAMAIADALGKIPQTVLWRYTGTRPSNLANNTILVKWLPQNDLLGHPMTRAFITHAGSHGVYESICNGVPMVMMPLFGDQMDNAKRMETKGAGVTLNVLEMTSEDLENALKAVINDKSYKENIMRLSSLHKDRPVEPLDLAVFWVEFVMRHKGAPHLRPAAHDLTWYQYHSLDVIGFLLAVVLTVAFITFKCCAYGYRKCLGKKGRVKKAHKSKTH
Experimental: as §1

UGT2B15 = target: T6, UGT2B15 (Homo sapiens, UniProt P54855); experiment: UGT supersome screening; format: in vitro ADME; conditions: UGT2B15 supersomes, 10 µM belinostat, 37°C
T6 construct: purchased BD Gentest
T6 sequence (P54855 24-530): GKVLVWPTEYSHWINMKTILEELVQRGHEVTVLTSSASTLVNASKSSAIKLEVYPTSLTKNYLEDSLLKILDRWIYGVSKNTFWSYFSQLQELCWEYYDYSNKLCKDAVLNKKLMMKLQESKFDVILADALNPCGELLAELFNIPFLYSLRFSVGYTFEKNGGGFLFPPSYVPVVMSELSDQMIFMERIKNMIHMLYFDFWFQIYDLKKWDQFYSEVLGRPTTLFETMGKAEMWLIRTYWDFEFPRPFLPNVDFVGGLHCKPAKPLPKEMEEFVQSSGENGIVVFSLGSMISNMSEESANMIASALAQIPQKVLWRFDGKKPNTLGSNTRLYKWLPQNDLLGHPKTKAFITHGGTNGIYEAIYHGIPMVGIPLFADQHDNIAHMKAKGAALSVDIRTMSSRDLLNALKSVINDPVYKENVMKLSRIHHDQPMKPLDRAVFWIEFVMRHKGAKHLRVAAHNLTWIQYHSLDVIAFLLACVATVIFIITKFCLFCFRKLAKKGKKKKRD
Experimental: as §1

UGT1A10 = target: T7, UGT1A10 (Homo sapiens, UniProt Q9HAW8); experiment: UGT supersome screening; format: in vitro ADME; conditions: UGT1A10 supersomes, 10 µM belinostat, 37°C
T7 construct: purchased BD Gentest
T7 sequence (Q9HAW8 26-530): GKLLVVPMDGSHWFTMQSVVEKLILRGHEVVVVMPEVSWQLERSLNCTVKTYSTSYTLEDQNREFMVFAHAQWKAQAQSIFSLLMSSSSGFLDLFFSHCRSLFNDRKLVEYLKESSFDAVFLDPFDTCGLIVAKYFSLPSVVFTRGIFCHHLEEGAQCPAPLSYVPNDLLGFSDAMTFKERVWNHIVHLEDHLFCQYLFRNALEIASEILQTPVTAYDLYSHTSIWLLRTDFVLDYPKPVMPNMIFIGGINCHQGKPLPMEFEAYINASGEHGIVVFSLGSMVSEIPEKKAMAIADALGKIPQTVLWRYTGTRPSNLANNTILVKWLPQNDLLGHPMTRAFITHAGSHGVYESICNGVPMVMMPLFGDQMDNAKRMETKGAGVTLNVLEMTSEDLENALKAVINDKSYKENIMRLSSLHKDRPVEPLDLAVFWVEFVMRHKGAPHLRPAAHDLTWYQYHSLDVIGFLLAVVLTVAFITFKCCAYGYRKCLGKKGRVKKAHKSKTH
Experimental: as §1

[7] = 600 mg/m^2, 30 min i.v. infusion
[8] = 900 mg/m^2, 30 min i.v. infusion
[9] = 1200 mg/m^2, 30 min i.v. infusion
[10] = 1400 mg/m^2, 30 min i.v. infusion
[11] = 150 mg/m2, 30-minute IV infusion, ref phase 1 study currently underway
[12] = 300 mg/m2, 30-minute IV infusion, ref phase 1 study currently underway
[13] = 600 mg/m2, 30-minute IV infusion, ref phase 1 study currently underway
[14] = 900 mg/m2, 30-minute IV infusion, ref phase 1 study currently underway
[15] = 1200 mg/m2, 30-minute IV infusion, ref phase 1 study currently underway

For `O=C(/C=C/c1cccc(S(=O)(=O)Nc2ccccc2)c1)NO` [Belinostat, N-hydroxy-3-(phenylsulphamoylphenyl) acrylamide], the tumor growth [1] is given as “Delay of tumor growth was observed”, the “elimination routes of PXD101 and its metabolites” value [2] is given as “urinary and fecal routes” and the maximum tolerable dose [3] is given as 1200 mg/m^2. The “coefficient of variation of Clearance (CL)” value ([4]; 1200 mg/m^2) was 29.0%, the “coefficient of variation of Clearance (CL)” value ([4]; 1400 mg/m^2) was 30.6% and the “dose linearity of pharmacokinetics” value ([4]; doses ranging from 600 to 1400 mg/m^2) was “linear pharmacokinetics”. For the same compound, the Cmax [4, 7] was 88.2 ± 8.5 µM, the Cmax [4, 8] was 98.5 ± 29.7 µM and the Cmax [4, 9] was 154 ± 50.4 µM. It also gave a Cmax [4, 10] of 174 ± 48.3 µM, an AUC(0-t) ([4]; 600 mg/m^2) of 61.3 ± 1.2 µM·h and an AUC(0-t) ([4]; 900 mg/m^2) of 70 ± 17.3 µM·h. For the same compound, the AUC(0-t) ([4]; 1200 mg/m^2) was 113 ± 37.1 µM·h, the AUC(0-t) ([4]; 1400 mg/m^2) was 149 ± 46.2 µM·h and the Tmax [4, 7] was 19.8 ± 8.4 min. It also gave a clearance [4, 7] of 877 mL/min, a half-life [4, 7] of 212 ± 20.4 min and a Vd [4, 7] of 268 ± 26.6 L. For the same compound, the Tmax [4, 8] was 25.2 ± 8.4 min, the clearance [4, 8] was 1180 mL/min and the half-life [4, 8] was 244 ± 23.4 min. It also gave a Vd [4, 8] of 409 ± 76.7 L, a Tmax [4, 9] of 38.4 ± 6 min and a clearance [4, 9] of 910 mL/min. For the same compound, the half-life [4, 9] was 248 ± 25.2 min, the Vd [4, 9] was 305 ± 186 L and the Tmax [4, 10] was 24 ± 8.4 min. The clearance [4, 10] was 883 mL/min, the half-life [4, 10] was 212 ± 30 min and the Vd [4, 10] was 279 ± 121 L. For the same compound, the CYP2C9 inhibition (CYP2C9) was “weak to moderate inhibitor”, the “inhibition of the five major cytochrome P450 enzymes” value [5] was “did not inhibit” and the Cmax [6, 11] was 6565 ± 2158 ng/mL. The t1/2 [6, 11] was 46.6 ± 8.7 min, the Cmax [6, 12] was 15505 ± 6245 ng/mL and the t1/2 [6, 12] was 44.6 ± 8.0 min. The Cmax [6, 13] was 31177 ± 8968 ng/mL, the t1/2 [6, 13] was 43.4 ± 6.7 min and the “dose limiting toxicity (DLT)” value ([6]; 600 mg/m2/d, six patients, ref on-going phase 1) was “DLT of severe fatigue”. The Cmax [6, 14] was 53779 ± 6381 ng/mL, the t1/2 [6, 14] was 54.2 ± 8.7 min and the Cmax [6, 15] was 52362 ± 12724 ng/mL. For the same compound, the t1/2 [6, 15] was 85.5 ± 19.6 min, the tolerability ([6]; doses ranging from 150 – 1200 mg/m2, ref phase 1 study currently underway) was “generally been well tolerated” and the “metabolism by UGT isoform” value (UGT1A7) was “no metabolism was observed”. The “metabolism by UGT isoform” value (UGT2B17) was “no metabolism was observed”, the “metabolism by UGT isoform” value (UGT1A6) was “no metabolism was observed” and the “metabolism by UGT isoform” value (UGT1A9) was “no metabolism was observed”. For the same compound, the “metabolism by UGT isoform” value (UGT1A4) was “no metabolism was observed”, the “metabolism by UGT isoform” value (UGT2B15) was “no metabolism was observed” and the “metabolism by UGT isoform” value (UGT1A10) was “no metabolism was observed”.
